Assay: gradient 5% acetonitrile 3 min, to 50% in 2 min, to 85% in 15 min, held 3 min, 100 µL/min
Settings: column: Zorbax Extend-C18 2.1 x 50 mm; eluents: water / acetonitrile, 0.1% formic acid
Outline: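 Each retention time is based on an adduct peak selected computationally and verified by manual inspection. Measurements used HPLC–quadrupole time-of-flight mass spectrometry in positive and negative ionization mode on mixtures of ~100 pure standards. Chromatography ran on a Zorbax Extend-C18 column (2.1 × 50 mm, 1.8 μm) at 100 μL/min with water and acetonitrile, each containing 0.1% formic acid, and dead and dwell volumes of 40 μL and 900 μL.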

Row | RP-LC retention time [s] | Structure (SMILES)
1 | 900 | Cc1nc(-c2ccc(C(=O)NC3CCCCC3)cc2)cs1
2 | 936 | Cc1nc(Nc2ccc(F)cn2)sc1C(=O)NCCc1ccc(Cl)cc1
3 | 848 | CCCCOc1ccc(CNC(=O)c2cc3c(=O)n(C)ccc3n2C)cc1
4 | 593 | CN(C)S(=O)(=O)c1ccc(-c2nnc(C(=O)NCCCN3CCCC3)o2)cc1
5 | 1200 | CCn1c(=O)c(C)nc2cc(-c3noc(-c4ccc(C)cc4)n3)ccc21
6 | 874 | COc1cccc(NC(=O)c2cc(C)n3nccc3n2)c1
7 | 658 | COc1ccc(-c2cc(N3CCN(C(=O)NCCC(C)C)CC3)ncn2)cc1OC
8 | 960 | O=S(=O)(c1cc(-c2nnc(C3CC3)o2)co1)N1CCN(c2ccccc2)CC1
9 | 778 | O=C(NC1CCN(C(=O)c2cc(-c3cccs3)[nH]n2)CC1)c1ccc(Cl)cc1
10 | 654 | COc1cccc(NC(=O)Nc2cc(-c3cn4cccnc4n3)ccc2OC)c1
11 | 923 | Cc1ccc(CNC(=O)c2cnc(-c3ccc(C)cc3)nc2-c2ccncc2)cc1
12 | 1020 | COc1cc(OC)cc(N2C(=O)C3N=NN(Cc4nc(-c5ccc(Cl)cc5)no4)C3C2=O)c1 (stereo not given)
13 | 657 | COc1cc(C(=O)Nc2c(-c3ccc(F)cc3)nc3ccccn23)cc(OC)c1OC
14 | 570 | OC1(c2ccccn2)CCOC2(CCN(Cc3ccc(F)cc3Cl)CC2)C1 (stereo not given)
15 | 860 | COc1ccc(C2Cn3nnc(C(=O)N4CCC(C(=O)NC5CCCCC5)CC4)c3CO2)cc1 (stereo not given)
16 | 708 | CCOC(=O)C1=C(CN2CCC(Cc3ccccc3)CC2)NC(=O)NC1c1ccco1 (stereo not given)
17 | 609 | O=C(Nc1nccnc1C(=O)NCCCN1CCCC1)c1ccccc1
18 | 645 | Cc1cc(C(=O)Nc2ccc3scnc3c2)no1
19 | 661 | CCCNc1cc(N2CCC(CCC(=O)NCc3cccs3)CC2)ncn1
20 | 604 | O=C(c1ccc2ccccc2n1)N1CC(n2ccnc2)C1
21 | 614 | CCOC(=O)c1nc(N2CCN(C3CCCCC3)CC2)c2ccccc2n1
22 | 1020 | CCOc1ccccc1N1CCN(C(=O)CSc2nccnc2Oc2ccc(C)cc2)CC1
23 | 797 | CCc1ccc(NC(=O)Cn2ncc3c(c2=O)N(C2CC2)C(=O)CS3)cc1
24 | 677 | COc1cccc(C(O)CN2CCN(c3ccc(C)cc3)CC2)c1 (stereo not given)
25 | 927 | COc1ccc2c(c1OC)C(=O)N1N=C(c3ccc(-c4ccccc4)cc3)CC21 (stereo not given)
26 | 757 | CCCNC(=O)CCc1nc2ccccc2n(CC(=O)Nc2cccc(OC)c2)c1=O

Row | RP-LC retention time [s] | Structure (SMILES)
27 | 719 | O=C(c1noc2c1CSc1ccccc1-2)N1CCN(c2ccccn2)CC1
28 | 776 | O=C(COc1ccc(Cl)cc1)N1CCC2(C1)C(=O)Nc1ccccc12 (stereo not given)
29 | 890 | CCc1cc(C2CCCN2C(=O)Nc2ccc(Cl)cc2)on1 (stereo not given)
30 | 595 | Cc1ccc(C(=O)N2CC(n3cc(COCC4CC4)nn3)C2)c(=O)[nH]1
31 | 863 | Cc1ccc(-c2cc3c(N4CCCC(C(=O)NCC5CC5)C4)nccn3n2)c(C)c1 (stereo not given)
32 | 865 | O=C(CCn1nnc2cc(-c3noc(-c4ccccc4F)n3)ccc21)N1CCCC1
33 | 766 | Cc1nc(-c2cccnc2)nc2c1CCC(=O)N2Cc1ccccc1
34 | 1180 | COc1ccc(NC(=O)c2cc3c(=O)n(CC(C)C)c4ccccc4n3n2)c(OC)c1
35 | 936 | COc1ccc(-c2nc(-c3cccc(-c4ccn[nH]4)c3)no2)c(OC)c1
36 | 1140 | Cc1ccc(-c2noc(C3CC3)n2)cc1S(=O)(=O)N1CCC(C(=O)N2CCc3ccccc32)CC1
37 | 666 | CCn1cnc(S(=O)(=O)N2CCC(C(=O)Nc3ccccc3OC)CC2)c1
38 | 1060 | O=C(Nc1cccc(Br)c1)N1CCCC1c1nc(-c2ccc(F)cc2F)no1 (stereo not given)
39 | 664 | Cc1cc(=O)n(CC(=O)N2CCc3ccccc32)c(N2CCCC2)n1
40 | 603 | O=C(CCc1nc2sc3c(c2c(=O)[nH]1)CCCCC3)N1CCN(c2ccccn2)CC1
41 | 743 | O=C(NC1CCCN(c2ccc(=O)[nH]n2)C1)c1cc2cc(Cl)ccc2[nH]1 (stereo not given)
42 | 854 | COc1ccc(-c2nc(N3CCSCC3)ncc2C(=O)O)cc1
43 | 1150 | CCc1ccc(Oc2cc(N3CCC(C(=O)NCCC4=CCCCC4)CC3)ncn2)cc1
44 | 648 | O=C(c1sc2ncccc2c1-n1cccc1)N1CCN(Cc2ccccc2)CC1
45 | 728 | Cn1cc(C(=O)NCCN2CCCCC2)c(S(=O)(=O)N2CCN(c3ccc(Cl)cc3)CC2)n1
46 | 1200 | CCOc1ccc(NC(=O)Cc2c(C)nn(-c3nc(-c4ccc(F)cc4)cs3)c2C)cc1
47 | 580 | NC(=O)C1CCN(C(=O)Cc2cc(-c3ccco3)on2)CC1
48 | 687 | CCOCCCNC(=O)C1CCCN(c2ccc(-c3ccc(C)c(C)c3)nn2)C1 (stereo not given)
49 | 907 | Cn1nc2c(c1NC(=O)C1(c3ccc(Cl)cc3)CCCC1)CCC2
50 | 1180 | CCCCNC(=O)Cc1c(C)nn(-c2nc(-c3ccc(Cl)cc3)cs2)c1C
51 | 826 | CCOc1cccc2c1OC1(CCN(C(C)=O)CC1)N1N=C(c3ccc4c(c3)OCO4)CC21 (stereo not given)

Continued, molecule first:

Row | Structure (SMILES) | RP-LC retention time [s]
52 | Cc1ccc(C(=O)CC2(O)C(=O)Nc3ccc(F)cc32)cc1C (stereo not given) | 776
53 | CCc1ccc(C(=O)CC2(O)C(=O)Nc3ccc(C)cc32)cc1 (stereo not given) | 804
54 | Cc1cc(C)cc(NC(=O)N2CCC(CN3CCCC(C)C3)CC2)c1 (stereo not given) | 648
55 | Cc1noc([C@@H]2CN(S(=O)(=O)c3cccs3)C[C@H]2C(N)=O)n1 | 658
56 | Cc1cccc(NC(=O)c2csc(-c3cn(C)c4ncccc34)n2)c1 | 1040
57 | Cc1cc(OC(C)C(=O)N2CCC3(O)CCCCC3C2)c2c3c(c(=O)oc2c1)CCC3 (stereo not given) | 820
58 | CCCC1c2nccn2CCCN1C(=O)Cc1c(C)noc1C (stereo not given) | 579
59 | Cc1cc(NC(=O)Nc2cc(Cl)ccc2C)no1 | 972
60 | CN(C)C1CCc2[nH]c3c(F)cc(F)cc3c2C1 (stereo not given) | 685
61 | CCCc1nc(C(C)(C)O)c(C(=O)OCc2oc(=O)oc2C)n1Cc1ccc(-c2ccccc2-c2nn[nH]n2)cc1 | 832
62 | CC(C)N1CCC(CCNC(=O)C2CN(C(=O)c3ccncc3)CC23CCCCC3)CC1 (stereo not given) | 567
63 | O=C(CCc1ccccc1)Nc1nc(-c2cccc3ccccc23)cs1 | 1170
64 | COc1ccc(CNC(=O)N(Cc2ccsc2)CC(F)(F)F)cc1OC | 812
65 | CCC(=O)Nc1ccc2c(c1)nc(CN1CCOCC1)n2C(C)C | 587
66 | CC(C)CC(=O)NCC12CCC=C1N(C)C(=O)CC2 (stereo not given) | 691
67 | O=C(NC1CCCCC1)c1ccc(CN2CCN(C3CCCC3)C(=O)C2=O)cc1 | 831
68 | Cc1ccc(C)c(CNS(=O)(=O)c2c(C)sc(C)c2-c2n[nH]c(C)c2C)c1 | 1150
69 | Cc1ccc(CNC(=O)CN2C(=O)C3CCCCN3c3ccc(S(=O)(=O)N4CCCC4)cc32)o1 (stereo not given) | 905
70 | Cn1cc(-c2nc(C(=O)NCc3cc(F)cc(F)c3)cs2)c2cccnc21 | 944
71 | CN(C)C(=O)c1ccc2c(c1)N(CC(=O)Nc1cccnc1)C(=O)CO2 | 572

Row | Structure (SMILES) | RP-LC retention time [s]
72 | COC(=O)N1CCN(C(=O)Cc2ccc(Cl)c(Cl)c2)C(CN2CCCC2)C1 (stereo not given) | 688
73 | CCCOc1ccc(C2NC(=O)NC(C)=C2C(=O)OC2CCCC2)cc1OC (stereo not given) | 857
74 | Cc1sc(-c2cc(C(F)(F)F)on2)cc1S(=O)(=O)Nc1cccc(Cl)c1 | 1180
75 | Cc1ccc(C)c(-n2ccn(Cc3nc(-c4ccccc4C)no3)c(=O)c2=O)c1 | 953
76 | CC(C)C(NC(=O)NCc1ccccc1)C(=O)N1CCc2ccccc21 (stereo not given) | 896
77 | Cc1sc(-c2cc(C(F)(F)F)on2)cc1S(=O)(=O)Nc1ccccc1Cl | 1180
78 | Cn1nc(C(=O)N2CCCC2)c2c1CCN(C(=O)CCC(=O)N1CCCCC1)C2 | 653
79 | CCC1CN2C=Nc3oc(C)c(C(=O)Nc4ccc(C(F)(F)F)cc4)c3C2=N1 (stereo not given) | 753
80 | N#Cc1ccc(C(=O)NCC(=O)N2CCCc3ccccc32)cc1 | 773
81 | Cc1cc(C)cc(NC(=O)NCCc2c(C)nn(C)c2C)c1 | 664
82 | Cc1cccc(C)c1NC(=O)Cn1ncc2c(c1=O)N(CC1CC1)C(=O)CS2 | 784
83 | CCCC(=O)Nc1nc2ccc(CCC(=O)Nc3ccc(CC)cc3)cc2s1 | 952
84 | CCC(C(=O)NCCCN1CCCC1)n1nc(C)c2sc3ccccc3c2c1=O (stereo not given) | 669
85 | CC(=O)CC(c1ccccc1)C1C(=O)Oc2ccccc2C1=O (stereo not given) | 1000
86 | NC(=O)c1cc(N2CC2)c([N+](=O)[O-])cc1[N+](=O)[O-] | 650
87 | Cc1ccccc1NC(=O)C1C(=O)N(CCO)C2(C)CC1c1ccccc1O2 (stereo not given) | 653
88 | O=C(NCc1cc(F)cc(F)c1)C1CCN(C(=O)c2ncn3c2COC(c2ccc(F)cc2)C3)CC1 (stereo not given) | 802
89 | CCc1ccc(NC(=O)c2cc3c(=O)n(CC)ccc3n2C)cc1 | 753
90 | COc1ccc(NS(=O)(=O)c2cc(-c3nc(C(C)(C)C)cs3)cs2)cc1Cl | 1220
